From patent US20050014676A1, “Methods for delaying or inducing labor” (Boston Biomedical Research Institute, priority 2003, published 2005)
Entries after “also recorded” stand apart in the source; their conditions may differ.

Assays:
[1] = tested on: 20-kDa myosin light chain (LC20); assay: Measurement of myosin light chain 20 phosphorylation (LC20-P) in permeabilized myometrial strips; set-up: species or system rat; conditions: 51 mM KCl stimulated for 4 min myometrial strips
Procedure: Measurements of myosin light chain 20 phosphorylation (LC20-P). Tissue preparation was as described above. After equilibration and stretching, the myometrial strips were permeabilized with 20 μg/ml alpha-toxin (List Biological Lab, Campbell, Calif.) at 34° C. for 30 min. The intracellular Ca2+ concentration was clamped at pCa7.0 for 12 min to prevent an artifactual triggering of contractions in response to the freezing solution. The measurement of LC20-P was performed by glycerol urea gels and western blots as previously published (Je et al., J. Physiol. 537, 567-577 (2001)). Moles phosphate per mole myosin light chain was calculated by dividing the density of the phosphorylated band by the sum of densities of phosphorylated plus the unphosphorylated bands.

[2] = tested on: pregnant rats and pups; assay: Fetal weight and toxicity to mothers and pups; assay type: in vivo, rat; conditions: for Fetal number/rat / Fetal weight: gestation day 20; for Fetal weight: (n) in brackets
Text: Animals and treatment groups. All procedures were approved by our institutional animal care and use committee (IACUC). Sprague-Dawley nonpregnant and time-mated, primigravid pregnant rats (day 1=sperm positive, Taconic, Germantown, N.Y.) were used for the experiments. They were housed in a constant-temperature room with a 12-hr light and 12-hr dark cycle. Food and water were available ad libitum. The rats were divided into five groups: nonpregnant (NP), sham, RU486 treated (RU), U0126+RU486 treated (U0+RU) and spontaneous labor (SL). The sequential scheme of the experiment is illustrated in FIG. 1.
Induction of preterm labor: In the RU group, rats (n=6) were treated with RU486 subcutaneously (SC) at dose of 2 mg/kg (concentration of 3 mg/ml in sunflower seed oil) at 10 am on day 19 of pregnancy. Then the rats were closely observed for signs of labor on day 20 of pregnancy.
U0126 treatment: In the U0+RU group, 18-day pregnant rats (n=6) were treated with U0126 at dose of 100 mg/kg, SC, q8h (7 am, 3 pm and 11 pm). U0126 was dissolved at a concentration of 200 mg/ml in DMSO. On day 19 of pregnancy, the rats were administrated RU486 at 10 am for preterm labor induction. The U0126 treatment continued till the onset of labor.
Tissue preparation and force recording.

[3] = tested on: myometrial strips; assay: In vitro myometrial contractility (isometric force, AUC) of strips from treated rats
[4] = tested on: high molecular weight caldesmon (h-CaD); assay: Western blot of myometrial h-CaD phosphorylation (Ser789); set-up: species or system rat; conditions: myometrium at onset of labor
Procedure: (§1) Western blot analysis. The muscle strips were quick-frozen in a dry ice acetone/DTT/TCA slurry at the end of force recording experiment. Samples were homogenized in a buffer containing 20 mM MOPS, 4% SDS, 1% Triton, 10% glycerol, 10 mM DTT, 20 mM β-glycerophosphate, 5.5 μM leupeptin, 5.5 μM pepstatin A, 20 KIU aprotinin, 2 mM Na3VO4, 1 mM NaF, 20 μM 4-(2-aminorthyl) benzenesulphonyl fluoride (AEBSF) and 100 μM ZnCl2. Protein-matched samples were SDS-PAGE electrophoresed, transferred to Immobilon-P membrane (Millipore, Bedford, Mass.), and subjected to immunostaining using the appropriate antibody. Blots were visualized with a SuperSignal West Pico Peroxide Solution (Pierce, Rockford, Ill.). The images were detected with a chemiluminescence screen and quantified with a BioRad Molecular Imager and Multi-Analyst software.

[5] = tested on: ERK2; assay: Western blot of myometrial ERK2 phosphorylation (p-ERK2/ERK2); set-up: species or system rat; conditions: myometrium at onset of labor
Procedure: as §1

[6] = tested on: Sprague-Dawley pregnant rats; assay: RU486-induced preterm labor in rats, onset of labor; conditions: for average delivery time after RU486 administration: RU486 2 mg/kg SC at 10 am day 19 of pregnancy, U0126 100 mg/kg SC q8h from day 18 until labor, mean±SEM

| SMILES | LC20-P level, positive control [1] | signs of toxicity to mother or offspring ([2]; U0126 at doses sufficient to delay preterm labor) | effect on fetal weight ([2]; U0126 treatment) | daily weight gain or general behavior of pregnant rats, U0+RU vs RU group ([2]; data not shown) | Fetal number/rat [2] | Fetal weight [2] | myometrial AUC once labor commenced, vs RU486 or spontaneous labor ([3]; U0+RU group) | h-CaD phosphorylation normalized to CaD protein, words [4] | ERK2 phosphorylation (p-ERK2/ERK2), words [5] | average delivery time after RU486 administration ([6]; n=6) [h] | delay of RU486-induced preterm labor ([6]; U0126 pretreatment, rats) | area under force curve (AUC) normalized to tissue dry weight ([3]; strips from treated rats at labor, force integrated over 15 min) [g·s/mg] | average gestational length ([6]; RU486-induced preterm labor, Mean±SD, n=6) [days] |
| --- | --- | --- | --- | --- | --- | --- | --- | --- | --- | --- | --- | --- | --- |
| [Cl-].[K+] [KCI] | 39.68±3.33 |  |  |  |  |  |  |  |  |  |  |  |  |
| N#CC(=C(N)Sc1ccccc1N)C(C#N)=C(N)Sc1ccccc1N [U0126, 1,4-diamino-2,3-dicyano-1,4-bis (2-aminophenylthio) butadiene] |  | no apparent signs of toxicity; also recorded: no obvious signs of toxicity | did not affect fetal weight | no difference | 12.3 | 2.46 ± 0.036 (31) grams | indistinguishable | indistinguishable | indistinguishable | 25.18 ± 0.64 | delays RU486-induced preterm labor in a statistically significant manner |  |  |
| CC#C[C@]1(O)CC[C@H]2[C@@H]3CCC4=CC(=O)CCC4=C3[C@@H](c3ccc(N(C)C)cc3)C[C@@]21C [RU486, 11 β-[4-Dimethylamino] phenyl-17β-hydroxy-17-[1-propynyl] estra-4,9-dien-3-one] |  |  |  |  | 13.4 | 2.46 ± 0.068 (16) grams |  |  |  | 22.25 ± 0.24 |  | 381.49 ± 44.92 | 20.35 ± 0.02 |
